Results on one compound are retold here after PMC10354055, “An optimized Nurr1 agonist provides disease-modifying effects in Parkinson’s disease models” (Nature Communications, 2023).

Holding throughout (format): in vivo, mouse
For data set [1], the system named is MPTP-induced male mice. Kind of data set: Pole test, MPTP-induced PD model mice. The protocol:
(§1) MPTP (Sigma-Aldrich) was intraperitoneally (i.p.) injected (30 mg/kg) for 5 days (Day 1-5). […] To test dyskinetic involuntary behavior, an L-DOPA injected group was included, which received 50 mg/kg of L-DOPA and 15 mg/kg of benserazide (Sigma-Aldrich) (i.p.) for 16 days (Day 1–16). All compounds were administered 6 h post-MPTP injection to avoid any effect of compounds on the MPTP metabolism in the brain. Motor and non-motor related behavior tests were performed on the following days as described in Fig. 4a in an assessor- and observer-blinded fashion. Pre-training and baseline setup for motor-related behaviors were performed 3 days prior to the injections. Mice were sacrificed and subjected to immunohistochemistry. Mice were housed at the Animal Care Facilities of McLean Hospital under a 12-h light/12-h dark cycle, ambient temperature and humidity. Animals were handled in accordance with McLean Hospital’s Institutional Animal Care and Use Committee (Protocol #: 2015N000002) and followed National Institutes of Health guidelines.
Mice were trained to descend a vertical metal rod wrapped with rough tape (80 cm high, 12 mm diameter) once per day for 2 days, and then the baseline was measured before the pole test (3 days before the MPTP injection or the first pole test at week 2). Mice were placed head-upward on the pole and total descent time was recorded.

Data set [2] has as its system MPTP-induced male mice. As to the kind of experiment: IHC of Iba-1+ microglia in STR and SNpc, MPTP-induced mice. The note with it: MPTP-induced mice, individual animal values. The protocol: as §1
(§2) Images were acquired using a KEYENCE microscope and quantified as the number or optical density of immunoreactive cells using ImageJ software.
(§3) The numbers of TH^+ DA neurons, NeuN^+ neurons, pS129 αSyn^+ cells in the SN and Iba-1^+ microglia in the SN and striatum were stereologically counted in six coronal sections (30 µm thickness) taken every 6th section (180 µm intervals) for each brain. The boundaries of the SN and striatum were delimited at low magnification (4X) to estimate each total area. Immunoreactive cells were counted with images taken at high magnification (×40) by a single blinded investigator. The group mean of the total number of immunoreactive cells from each brain was transformed as percentage of the number in the control group (%). For AAV-αSyn-induced mice, the group mean of the total number of cells in the ipsilateral side was transformed as a percentage of that observed in the contralateral side.

In data set [3] the test system is MPTP-induced male mice. Kind of data set: IHC/stereology of TH+ fibers, TH+ DA neurons and NeuN+ neurons, MPTP-induced mice. As to conditions: MPTP-induced mice, individual animal values. The protocol:
as §1, §2, §3

For data set [4], the system named is MPTP-induced male mice. As to the kind of experiment: AIMs scoring (dyskinesia), MPTP-induced PD model mice. As to conditions: for AIMs score (20-140 min): Figure 4f, MPTP-induced mice, individual animal values. The protocol: Male C57BL/6 J mice (8–10 weeks, 25–30 g; Jackson Laboratories) were randomly assigned to 5 groups including vehicle (VEH), MPTP, MPTP + L-DOPA, MPTP + CQ and MPTP + 4A7C-301 (n ≥ 7 for each group). MPTP (Sigma-Aldrich) was intraperitoneally (i.p.) injected (30 mg/kg) for 5 days (Day 1-5). Different dosages of CQ (20, 40, and 80 mg/kg) and 4A7C-301 (1, 5, 20 mg/kg) were first tested to determine the effective dose window, then 40 and 5 mg/kg doses were finally selected for CQ and 4A7C-301 respectively to show the most prominent effects. CQ or 4A7C-301 was dissolved in PBS and administrated (i.p.) for 16 days starting with MPTP injection (Day 1-16). To test dyskinetic involuntary behavior, an L-DOPA injected group was included, which received 50 mg/kg of L-DOPA and 15 mg/kg of benserazide (Sigma-Aldrich) (i.p.) for 16 days (Day 1–16). All compounds were administered 6 h post-MPTP injection to avoid any effect of compounds on the MPTP metabolism in the brain. Motor and non-motor related behavior tests were performed on the following days as described in Fig. 4a in an assessor- and observer-blinded fashion. Pre-training and baseline setup for motor-related behaviors were performed 3 days prior to the injections. Mice were sacrificed and subjected to immunohistochemistry. Mice were housed at the Animal Care Facilities of McLean Hospital under a 12-h light/12-h dark cycle, ambient temperature and humidity. Animals were handled in accordance with McLean Hospital’s Institutional Animal Care and Use Committee (Protocol #: 2015N000002) and followed National Institutes of Health guidelines.
Abnormal involuntary movements (AIMs) were scored using the developed mouse dyskinesia rating scale as described in Sebastianutto et al.. Briefly, 4 mice were recorded simultaneously with a Swann HD Security System (B&H Photo-Video Inc.) for 2 min per session, every 20 min during the 140 min following drug injections (i.e., total 7 sessions), on every other or third day (Day 2, 4, 7, 9, 11, 13, and 16). Dyskinetic movements were scored for 3 subtypes of basic AIMs including axial, forelimb and orolingual AIMs, based on the severity scale from 0 to 4 which measures the duration of AIMs (0 = no dyskinesia; 1 = display dyskinesia for <50% of the observation time; 2 = display dyskinesia for >50% of the observation time; 3 = display dyskinesia for the entire observation period but ceased upon external stimuli; 4 = display continuous and unceasing dyskinesia). To get a better and more sensitive validation of mice dyskinesia, we included an amplitude AIMs score, which rates the degree of deviation of body part or muscle position from its resting position on a 0-4 scale as previously described. Finally, global AIMs score was calculated by multiplying basic AIMs and amplitude AIMs scores for each subtype on each session. Data points were plotted as the grand total of individual AIMs score on each testing day.

For data set [5], the system named is MPTP-induced male mice. Kind of data set: Rotarod, sub-chronic MPTP-induced PD model mice. The protocol:
as §1
Mice were pre-trained on an automated 5-lane rotarod unit (10 rpm, 3 min) for 2 days and the baseline was measured (10 rpm, 90 sec) before the rotarod test (3 days before the MPTP injection or the first rotarod test at week 2). Rotarod measurements were performed using an accelerating protocol, accelerated smoothly from 2 to 30 rpm for 5 min. Time on the rotating rod was measured automatically by placing a trip switch under the floor beneath the rotating drum.
(In general: In the rotarod test animals must keep their balance on a rotating rod.)

The subject of data set [6] is MPTP-induced male mice. Kind of data set: Olfactory discrimination test, MPTP-induced PD model mice. The note with it: Figure 4e, MPTP-induced mice, individual animal values. The protocol: as §1
The olfactory discrimination test was designed based on Prediger et al.. Briefly, mice were placed in a chamber (40 (w) × 20 (d) × 20 (h) cm) segmented with two identical compartments containing fresh sawdust (non-familiar odor) on one side and unchanged sawdust (familiar odor; maintained for 3 days before the test) on the other side. Mice could choose between one or another area by freely passing through an open door, for 5 min. Mice movements were monitored with EthoVision XT version 7.0 (Noldus) and time (s) and distance (cm) traveled in each compartment were recorded and analyzed.

The test system of data set [7] is MPTP-induced male mice. Kind of data set: Cylinder test, MPTP-induced PD model mice. The protocol:
as §1
Mice were placed in a transparent plastic cylinder (15.5 cm high, 12.7 cm diameter) with a mirror behind it. Spontaneous activity was recorded and measured as counting the number of rearing events for 3 min session. A rear was considered only when the mouse touched the wall of the cylinder with its forelimb paws while standing on its hindlimbs (vertical movement) to count meaningful physiological movements.

Where [8] appears, read: CQ 40, 4A7C-301 5, L-DOPA 50 mg/kg/day, i.p., 16 days.

Where “and” joins values, the source holds several entries; their conditions need not be identical. Identical values can stand only once.

`N[C@@H](Cc1ccc(O)c(O)c1)C(=O)O` [L-DOPA]: the “motor function, pole test (in words)” value in the data set on MPTP-induced male mice [1] (setting [8]) was “significantly rescued”. The “Time to traverse” value with MPTP-induced male mice [1] (Figure 4c, MPTP-induced mice, individual animal values) was 8.78 s and 7.65 s and 6.89 s and 8.14 s and 4.4 s and 7.41 s and 5.91 s and 7.98 s and 7.2 s and 9.47 s. The “Iba-1+ cells in STR (% of control)” value in the data set with MPTP-induced male mice [2] (Figure 4m) is 163.11 % of control and 168.08 % of control and 185.26 % of control and 234.36 % of control and 189.06 % of control and 208.32 % of control and 222.78 % of control. The “Iba-1+ cells in SNpc (% of control)” value in the data set with MPTP-induced male mice [2] (Figure 4n) was 319.52 % of control and 324.44 % of control and 366.71 % of control and 419.8 % of control and 373.6 % of control and 282.16 % of control and 446.35 % of control. Also, the “TH+ neurons in SNpc (% of control)” value in the data set on MPTP-induced male mice [3] (Figure 4j) was 85.08 % of control and 29.95 % of control and 41.78 % of control and 36.5 % of control and 16.11 % of control and 47.32 % of control and 20.39 % of control. In addition, the “NeuN+ neurons in SNpc (% of control)” value with MPTP-induced male mice [3] (Figure 4k) is 54.87 % of control and 63.58 % of control and 65.33 % of control and 79.48 % of control. Besides, the “TH fiber density in STR (% of control)” value in the data set with MPTP-induced male mice [3] (Figure 4h) is 32.4 % of control and 36.19 % of control and 33.35 % of control and 30.68 % of control and 30.71 % of control and 45.79 % of control and 28.8 % of control. In the data set on MPTP-induced male mice [4] (CQ 40, 4A7C-301 5, L-DOPA 50 mg/kg/day, i.p.), the “abnormal involuntary movements (AIMs) (in words)” value is on record as “severe AIMs”. The “AIMs score (20-140 min)” value with MPTP-induced male mice [4] (day 2) is 7 and 5.5 and 11 (2×) and 6 and 14 and 20 and 4 and 12 and 5 and 16.3; in the data set on MPTP-induced male mice [4] (day 4), 9 and 13 and 14 and 12 (2×) and 16 (2×) and 17 (2×) and 27 (2×); in the data set with MPTP-induced male mice [4] (day 7), 21.5 and 27.5 and 12 and 55 and 25.5 and 35 and 14 and 56 and 31.5 and 46 and 20; in the data set on MPTP-induced male mice [4] (day 9) it was 23 (2×) and 26 and 21 (3×) and 19 (2×) and 42 and 18 and 44; in the data set with MPTP-induced male mice [4] (day 11), 28 and 33 and 23 and 27 and 20 and 35 (2×) and 12 and 55.5 and 30.5 and 61; in the data set on MPTP-induced male mice [4] (day 13), 63.5 and 30.5 and 43 and 32.5 and 36 and 50 and 34 and 34.5 and 53.25 and 63 and 56. In the data set on MPTP-induced male mice [4] (day 16), the “AIMs score (20-140 min)” value is 110.5 and 38.5 (2×) and 56 and 60.5 and 40.5 and 47.5 and 84 and 48.5 and 67.5 and 83.5. In addition, the “motor function, rotarod (in words)” value with MPTP-induced male mice [5] (setting [8]) is on record as “significantly rescued”. For the same compound, in the data set with MPTP-induced male mice [5] (Figure 4b, MPTP-induced mice, individual animal values), the “Latency to fall” value was 137.97 s and 138.13 s and 80.13 s and 101.23 s and 128.1 s and 204.93 s and 146.8 s and 175.2 s and 116.5 s and 196.07 s. In addition, the “Velocity” value in the data set on MPTP-induced male mice [6] is 4.7 cm/s and 5.67 cm/s and 6.49 cm/s and 5.88 cm/s and 6.16 cm/s and 7.7 cm/s and 9.82 cm/s and 6.86 cm/s and 7.1 cm/s and 6.45 cm/s and 7.2 cm/s. The “Duration to stay (sec), New bedding” value in the data set with MPTP-induced male mice [6] (New bedding) is 183.25 s and 108.99 s and 116.25 s and 132.99 s and 167.47 s and 141.68 s and 212.98 s and 167.63 s and 167.4 s and 102.43 s and 140.79 s. Moreover, the “Duration to stay (sec), Old bedding” value with MPTP-induced male mice [6] (Old bedding) is 133.6 s and 197.16 s and 159.56 s and 114.75 s and 189.57 s and 183.55 s and 166.31 s and 132.11 s and 158.67 s and 90.56 s and 134.77 s. The “motor function, cylinder test (in words)” value in the data set on MPTP-induced male mice [7] (setting [8]) was “significantly rescued”. Besides, the Number of rearing with MPTP-induced male mice [7] (Figure 4d, MPTP-induced mice, individual animal values) was 34 and 77 and 71 and 22 and 24 and 17 and 21 and 55 and 32 and 29.
